Measurements taken from US9573899B2, “USP7 inhibitor compounds and methods of use” (Genentech, Inc., priority 2015, dated 2017).

target: T1, USP7, full-length, native C-Terminus (Homo sapiens, UniProt Q93009); assay: Biochemical USP7 assay with Ubiquitin-Rho110 substrate, compounds pre-incubated with USP7 (USP7_Ub-Rho preInc); details: compounds pre-mixed with USP7, 1 hour incubation, before substrate; read-out: USP7 Ub-Rho preInc (IC50)
T1 construct: USP7, full-length, native C-Terminus, 0.2 nM
T1 sequence (Q93009 whole entry): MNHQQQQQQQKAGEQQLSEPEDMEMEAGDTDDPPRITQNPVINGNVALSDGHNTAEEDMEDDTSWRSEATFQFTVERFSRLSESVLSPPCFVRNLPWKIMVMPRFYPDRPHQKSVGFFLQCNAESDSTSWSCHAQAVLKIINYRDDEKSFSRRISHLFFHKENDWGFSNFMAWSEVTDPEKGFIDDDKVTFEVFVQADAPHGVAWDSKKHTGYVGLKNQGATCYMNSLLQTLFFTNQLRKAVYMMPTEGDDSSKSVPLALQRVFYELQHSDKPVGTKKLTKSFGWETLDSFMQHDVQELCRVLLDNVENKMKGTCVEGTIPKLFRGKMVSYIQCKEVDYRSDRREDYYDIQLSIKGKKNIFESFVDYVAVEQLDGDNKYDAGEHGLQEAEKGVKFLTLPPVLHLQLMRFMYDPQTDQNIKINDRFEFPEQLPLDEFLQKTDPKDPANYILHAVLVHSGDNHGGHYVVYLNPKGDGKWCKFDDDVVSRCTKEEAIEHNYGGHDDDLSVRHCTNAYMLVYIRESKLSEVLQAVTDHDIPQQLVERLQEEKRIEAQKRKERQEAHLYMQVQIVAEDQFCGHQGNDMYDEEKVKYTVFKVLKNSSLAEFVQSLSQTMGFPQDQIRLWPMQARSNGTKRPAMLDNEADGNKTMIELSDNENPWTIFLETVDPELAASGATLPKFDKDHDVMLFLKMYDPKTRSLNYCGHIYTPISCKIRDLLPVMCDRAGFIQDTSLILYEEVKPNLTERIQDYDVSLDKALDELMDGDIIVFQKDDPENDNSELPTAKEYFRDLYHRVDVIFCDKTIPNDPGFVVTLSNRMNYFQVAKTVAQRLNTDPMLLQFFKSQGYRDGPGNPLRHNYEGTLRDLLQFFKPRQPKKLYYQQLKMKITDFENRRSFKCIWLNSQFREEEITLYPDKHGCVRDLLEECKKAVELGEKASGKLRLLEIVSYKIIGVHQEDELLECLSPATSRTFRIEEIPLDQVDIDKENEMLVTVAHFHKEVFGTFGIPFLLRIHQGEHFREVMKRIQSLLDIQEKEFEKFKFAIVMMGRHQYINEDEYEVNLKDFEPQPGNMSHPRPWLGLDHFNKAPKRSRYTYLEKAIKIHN
Procedure: Biochemical USP7 assays using Ubiquitin-Rho110 as a substrate: The final assay conditions were as follows: The Reaction Buffer consisted of: 50 mM Tris (pH 7.5), 0.01% (v/v) Triton X-100, 2.5 mM Dithiothreitol, 0.1% (w/v) bovine gamma globulin (Sigma cat #G5009-25G); USP7, full-length, native C-Terminus, 0.2 nM; the substrate, Ubiquitin-Rho110 (Boston Biochem cat #U-555), 1 uM. Reactions were carried out for 1 hour at room temperature, in black 20 μL volume polystyrene ProxiPlate 384 F Plus® (PerkinElmer cat #6008260).
Test compounds, including a control USP7 inhibitor (Ub-aldehyde, Boston Biochem cat #U-201) were serially diluted in DMSO, in 384 well clear V-bottom polypropylene plates (Greiner cat #781280). Compounds in DMSO were diluted 10-fold into Reaction Buffer, to achieve 3-fold the final desired concentration. The substrate, Ubiquitin-Rho110 (Boston Biochem cat #U-555), was prepared at 3 μM (3-fold the final concentration) and 5 ul was dispensed into the reaction plate. 5 ul of the compounds (diluted in Reaction Buffer at 3-fold the final concentration) were transferred to the reaction plate. 5 ul of 0.6 nM USP7 (diluted in Reaction Buffer at 3-fold the final concentration) was transferred to the reaction plate to initiate the reaction. After 1 hour incubation at room temperature the reaction was quenched by the addition of 5 ul of 400 mM acetic acid. The enzymatic product was measured by quantifying the fluorescence signal of cleaved Rhodamine-110 using excitation at 485 nm and emission at 535 nm. When pre-incubation of USP7 with compounds was required, the order of addition of reagents was modified to pre-mix the compounds with USP7 (with a 1 hour incubation period), prior to the addition of the substrate and the initiation of the reaction period. Percentage inhibition values were calculated relative to a no enzyme control and a uninhibited enzyme control. Curve fitting and IC50 calculations were carried out using Genedata Screener software.

IC50 [µM]	SMILES
161	CCc1c(-c2cccc(C(=O)N(C)C)c2)cnc(N)c1-c1ccc(O)cc1 [Compound 54, 3-[6-amino-4-ethyl-5-(4-hydroxyphenyl)-3-pyridyl]-N,N-dimethyl-benzamide]
> 20	CCc1c(-c2ccc(CO)cc2)cnc(N)c1-c1ccc(O)cc1 [Compound 55, 4-[2-amino-4-ethyl-5-[4-(hydroxymethyl)phenyl]-3-pyridyl]phenol]
> 20	CCc1c(-c2cccc(C)c2)cnc(N)c1-c1ccc(O)cc1 [Compound 57, 4-[2-amino-4-ethyl-5-(m-tolyl)-3-pyridyl]phenol]
93.3	CCc1c(-c2ccc(=O)[nH]c2)cnc(N)c1-c1ccc(O)cc1 [Compound 58, 5-[6-amino-4-ethyl-5-(4-hydroxyphenyl)-3-pyridyl]-1H-pyridin-2-one]
19.3	CCc1c(-c2ccc(O)cc2)cnc(N)c1-c1ccc2[nH]nc(C)c2c1 [Compound 59, 4-[6-amino-4-ethyl-5-(3-methyl-1H-indazol-5-yl)-3-pyridyl]phenol]
167	CCc1c(-c2ccc(C(=O)N3CCOCC3)cc2)cnc(N)c1-c1ccc(O)cc1 [Compound 60, [4-[6-amino-4-ethyl-5-(4-hydroxyphenyl)-3-pyridyl]phenyl]-morpholino-methanone]
39.2	CCc1c(-c2ccc(C#N)nc2)cnc(N)c1-c1ccc(O)cc1 [Compound 62, 5-[6-amino-4-ethyl-5-(4-hydroxyphenyl)-3-pyridyl]pyridine-2-carbonitrile]
11.7	CCc1c(-c2cncc(C#N)c2)cnc(N)c1-c1ccc(O)cc1 [Compound 63, 5-[6-amino-4-ethyl-5-(4-hydroxyphenyl)-3-pyridyl]pyridine-3-carbonitrile]
> 63.3	CCc1c(-c2cccc(C(=O)N3CCCC3)c2)cnc(N)c1-c1ccc(O)cc1 [Compound 64, [3-[6-amino-4-ethyl-5-(4-hydroxyphenyl)-3-pyridyl]phenyl]-pyrrolidin-1-yl-methanone]
7.7	CCc1c(-c2ccc(C(=O)NC3CC3)cc2)cnc(N)c1-c1ccc(O)cc1 [Compound 65, 4-[6-amino-4-ethyl-5-(4-hydroxyphenyl)-3-pyridyl]-N-cyclopropyl-benzamide]
18.3	CCc1c(-c2cccc(CC#N)c2)cnc(N)c1-c1ccc(O)cc1 [Compound 66, 2-[3-[6-amino-4-ethyl-5-(4-hydroxyphenyl)-3-pyridyl]phenyl]acetonitrile]
45	CCc1c(-c2ccc(C#N)c(F)c2)cnc(N)c1-c1ccc(O)cc1 [Compound 67, 4-[6-amino-4-ethyl-5-(4-hydroxyphenyl)-3-pyridyl]-2-fluoro-benzonitrile]
> 63.3	CCc1c(-c2ccc(OC)nc2)cnc(N)c1-c1ccc(O)cc1 [Compound 68, 4-[2-amino-4-ethyl-5-(6-methoxy-3-pyridyl)-3-pyridyl]phenol]
> 63.3	CCc1c(-c2cccc(C(=O)NC(C)C)c2)cnc(N)c1-c1ccc(O)cc1 [Compound 69, 3-[6-amino-4-ethyl-5-(4-hydroxyphenyl)-3-pyridyl]-N-isopropyl-benzamide]
34.4	CCc1c(-c2ccc(CNS(C)(=O)=O)cc2)cnc(N)c1-c1ccc(O)cc1 [Compound 70, N-[[4-[6-amino-4-ethyl-5-(4-hydroxyphenyl)-3-pyridyl]phenyl]methyl]methanesulfonamide]
70.6	CCc1c(-c2cnn(CC(C)C)c2)cnc(N)c1-c1ccc(O)cc1 [Compound 71, 4-[2-amino-4-ethyl-5-(1-isobutylpyrazol-4-yl)-3-pyridyl]phenol]
12.5	CCc1c(-c2ccc(O)cc2)cnc(N)c1-c1ccc(O)c(C#N)c1 [Compound 72, 5-[2-amino-4-ethyl-5-(4-hydroxyphenyl)-3-pyridyl]-2-hydroxy-benzonitrile]
47.3	CCc1c(-c2ccnc(C)c2)cnc(N)c1-c1ccc(O)cc1 [Compound 73, 4-[2-amino-4-ethyl-5-(2-methyl-4-pyridyl)-3-pyridyl]phenol]
